Several values for one entry are separate records, joined by “and”; a condition that tells them apart may be missing. Equal entries are not always repeated.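 Grown in 96-well plates, cells were treated for 48 hours with each compound at five concentrations. Insufficient inhibition: endpoint recorded as highest concentration tested. Here, GI50 denotes the concentration required for 50% inhibition of growth. TGI: concentration producing complete growth inhibition.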
How the values were obtained:
Experiment in all cases: NCI tumour cell line growth inhibition, 48 h
[1] = system: SN12K1 renal
[2] = system: HOP-18 NSCLC
[3] = system: T-47D breast
[4] = system: SNB-78 CNS
[5] = system: MDA-N
[6] = system: PC-3 prostate
[7] = system: P388 leukemia
[8] = system: XF 498 CNS
[9] = system: DMS 273 small cell lung
[10] = system: LXFL 529 NSCLC
[11] = system: RXF-631 renal

For `COc1cc(C2c3cc4c(cc3[C@@H](Nc3ccc(C#N)cc3)C3COC(=O)[C@H]23)OCO4)cc(OC)c1O` (some centres undefined), which TGI [1] is on record?
The TGI was 3.94 µM.

And the TGI [2]?
The TGI was 39.3 µM.

And the GI50 [3]?
Its GI50 is 0.46 µM.

And the TGI [4]?
Its TGI is 75 µM.

What about the TGI [5] of the same molecule?
Its TGI is 18.7 µM and > 100 µM.

What about the GI50 [6] of the same molecule?
The GI50 was 2.81 µM.

And the TGI [6]?
Its TGI is 50 µM and > 100 µM.

And the TGI [7]?
Its TGI is 0.832 µM.

And the TGI [8]?
The TGI was 22.8 µM.

How did the TGI [9] turn out when `CCCc1[nH]nc(CCC(=O)N(Cc2ccccc2)Cc2ccccc2)c1CC` was run?
Its TGI is > 100 µM.

And the TGI [2]?
The TGI was > 100 µM.

What about the TGI [10] of the same molecule?
The TGI was > 100 µM.

And the TGI [11]?
Its TGI is > 100 µM.

And the TGI [8]?
The TGI was > 100 µM.

For `Cc1cccc(NC(=O)CC(=O)N2N=C(N(CCC#N)c3ccc(Cl)cc3)CC2c2ccccc2)c1` (centres undefined), which TGI [9] is on record?
Its TGI is > 100 µM.

And the TGI [2]?
Its TGI is > 100 µM.

And the TGI [10]?
The TGI was > 100 µM.

And the TGI [11]?
The TGI was > 100 µM.

And the TGI [4]?
The TGI was > 100 µM.

What about the TGI [8] of the same molecule?
Its TGI is > 100 µM.

`Cc1ccc(-c2c(N)[n+]([O-])c3ccccc3[n+]2[O-])cc1` was tested. Which TGI [9] did it give?
The TGI was 29.5 µM.

And the TGI [2]?
Its TGI is 29.1 µM.

And the TGI [10]?
Its TGI is 18.3 µM.

And the TGI [11]?
The TGI was 3.19 µM.

What about the TGI [4] of the same molecule?
Its TGI is 37.1 µM.

What about the TGI [8] of the same molecule?
Its TGI is 19.5 µM.

Which TGI [9] does the source give for `N#C/C(=C1\OC(=O)C(c2ccc(Br)cc2)=C1O)c1ccc(Br)cc1` here?
The TGI was 48.2 µM.

What about the TGI [2] of the same molecule?
The TGI was 26.3 µM.

What about the TGI [10] of the same molecule?
Its TGI is 22.1 µM.

What about the TGI [11] of the same molecule?
Its TGI is 92.6 µM.

And the TGI [4]?
Its TGI is 28.2 µM.

What about the TGI [8] of the same molecule?
Its TGI is 25.6 µM.

For `CNC(=O)OCc1nc(SC2CCCCO2)n(C)c1COC(=O)NC` (centres undefined), which TGI [1] is on record?
The TGI was > 100 µM.

What about the TGI [9] of the same molecule?
Its TGI is > 100 µM.

What about the TGI [2] of the same molecule?
Its TGI is > 100 µM.

What about the TGI [10] of the same molecule?
The TGI was > 100 µM.

And the TGI [11]?
The TGI was > 100 µM.

What about the TGI [4] of the same molecule?
Its TGI is > 100 µM.

What about the TGI [7] of the same molecule?
Its TGI is > 100 µM.

What about the TGI [8] of the same molecule?
Its TGI is > 100 µM.

What does the source list for `CC1=NOC(=O)/C1=C/c1ccccc1O`?
TGI [9]: > 100 µM; TGI [2]: > 100 µM; TGI [10]: > 100 µM; TGI [11]: > 100 µM; TGI [4]: > 100 µM; TGI [8]: > 100 µM

How did the GI50 [9] turn out when `Cc1ccncc1.[O]=[Ge].[O]=[Ge].[O]=[Ge].[O]=[Ge].[O]=[Ge].[O]=[Ge][OH].[O]=[Ge][OH]` was run?
The GI50 was > 100 µM.

What about the TGI [9] of the same molecule?
The TGI was > 100 µM.

And the GI50 [2]?
The GI50 was > 100 µM.

And the TGI [2]?
The TGI was > 100 µM.

And the GI50 [10]?
Its GI50 is > 100 µM.

What about the TGI [10] of the same molecule?
The TGI was > 100 µM.

What about the GI50 [11] of the same molecule?
Its GI50 is > 100 µM.

What about the TGI [11] of the same molecule?
The TGI was > 100 µM.

And the GI50 [4]?
The GI50 was > 100 µM.

And the TGI [4]?
The TGI was > 100 µM.

What about the GI50 [8] of the same molecule?
The GI50 was > 100 µM.

What about the TGI [8] of the same molecule?
Its TGI is > 100 µM.

`C=C1C(=O)O[C@H]2[C@H]1[C@H](OC(=O)/C(C)=C\C)CC(=C)[C@@H]1[C@H](O)[C@H]3O[C@@]3(C)[C@@]12O` was tested. Which TGI [9] did it give?
Its TGI is > 100 µM.

What about the TGI [2] of the same molecule?
The TGI was > 100 µM.

What about the TGI [10] of the same molecule?
The TGI was > 100 µM.

And the TGI [11]?
The TGI was > 100 µM.

And the TGI [4]?
Its TGI is > 100 µM.

And the TGI [8]?
Its TGI is > 100 µM.

`CN(C(=O)C12C3C4C5C3C1(C(=O)O)C5C42)C(C)(C)C` (centres undefined) was tested. Which TGI [9] did it give?
The TGI was 33.5 µM.

And the TGI [2]?
The TGI was > 100 µM.

What about the TGI [10] of the same molecule?
Its TGI is > 100 µM.

What about the TGI [11] of the same molecule?
The TGI was > 100 µM.

What about the TGI [4] of the same molecule?
Its TGI is > 100 µM.

What about the TGI [8] of the same molecule?
The TGI was > 100 µM.

Which results are given for `CCOC(=O)C1=C(C)N(Cc2ccccc2)C(C)=C(C(=O)OCC)C1c1ccccc1O`?
TGI [9]: > 100 µM; TGI [2]: > 100 µM; TGI [10]: 71 µM; TGI [11]: > 100 µM; TGI [8]: 51.3 µM

Which TGI [9] does the source give for `CCN(CC)CCn1ccc(=O)c2cc3c(=O)ccn(CCN(CC)CC)c3c(C)c21` here?
Its TGI is 15.1 µM.

And the TGI [2]?
The TGI was 30 µM.

And the TGI [10]?
Its TGI is 16.5 µM.

What about the TGI [3] of the same molecule?
The TGI was 50 µM.

What about the TGI [11] of the same molecule?
Its TGI is 21.5 µM.

And the TGI [4]?
Its TGI is 26.9 µM.

And the TGI [5]?
The TGI was 18 µM.

What about the TGI [6] of the same molecule?
The TGI was 15.9 µM.

And the TGI [8]?
Its TGI is 21.4 µM.

For `COC(=O)CCC(NC(=S)N/N=C(\C)c1nccs1)C(=O)OC` (centres undefined), which TGI [2] is on record?
The TGI was > 100 µM.

What about the TGI [10] of the same molecule?
The TGI was > 100 µM.

And the TGI [11]?
The TGI was > 100 µM.

And the TGI [4]?
The TGI was > 100 µM.

What about the TGI [8] of the same molecule?
Its TGI is > 100 µM.

From PubChem BioAssay (NCI)
